Data as given in paper PMC8003416, “Modulation of Human Phenylalanine Hydroxylase by 3-Hydroxyquinolin-2(1H)-One Derivatives” (Biomolecules, 2021).

Key:
[1] = Alamar Blue cell viability assay; format: cell-based; details: human, HEK-293T cells
Protocol: Cytotoxicity of selected 3HQs was assessed in HEK-293T cells using the Alamar Blue assay as a general cell viability endpoint method that monitors the cellular metabolic state, and the propidium iodide (PI) exclusion assay was used to evaluate membrane integrity essentially as described. The 3HQs were tested at a final concentration of 50 and 100 μM (two independent assays; five replicates each). Control assays were performed using 1% DMSO (negative control), or SDS at 1 mg/mL as a positive control of cell death in the PI assay. HEK-293T cells were seeded in sterile flat bottom 96-well tissue culture plates, in RPMI 1640 culture medium, supplemented with 10% fetal bovine serum, 100 units/mL of penicillin G (sodium salt), 100 μg/mL of streptomycin sulphate and 2 mM L-glutamine, at a cell density of 2 × 10^4 cells per well. Cells were incubated at 37 °C and 5% CO2. The culture medium was replaced by fresh medium (supplemented as above) containing the different 3HQs to be analyzed. After 24 h incubation, the culture medium was replaced by […] PI (Sigma-Aldrich) in fresh medium (stock solution 1.5 mM in DMSO) and fluorescence was measured (λexc 485 nm, λem 590 nm) in a FLUOstar Omega microplate reader. The Alamar Blue assay was performed by replacing the culture medium with fresh medium containing 5 mM resazurin (Invitrogen). The cells were further incubated for 3 h and fluorescence was measured (λexc 530 nm, λem 590 nm) in a FLUOstar Omega microplate reader (BMG Labtech). The relative PI uptake and cell viability (%) were calculated using Equations (3) and (4), respectively. Relative PI uptake = Fluorescence intensitysample/Fluorescence intensitynegative control(3) Relative cell viability (%) = Fluorescence intensitysample/Fluorescence intensitycontrol × 100(4)

Factor Xa (FXa) = molecular target: T1, Factor Xa (FXa) (Bos taurus, UniProt P00743); assay: Factor Xa activity control with Boc-Ile-Glu-Gly-Arg-AMC; format: biochemical; details: 100 μM compound; for FXa relative (residual) enzyme activity: 1% DMSO control = 100%; for Factor Xa Abs/min: control 597 ± 16
T1 construct: purchased New England Biolabs
T1 sequence (P00743 234-492 limits assumed): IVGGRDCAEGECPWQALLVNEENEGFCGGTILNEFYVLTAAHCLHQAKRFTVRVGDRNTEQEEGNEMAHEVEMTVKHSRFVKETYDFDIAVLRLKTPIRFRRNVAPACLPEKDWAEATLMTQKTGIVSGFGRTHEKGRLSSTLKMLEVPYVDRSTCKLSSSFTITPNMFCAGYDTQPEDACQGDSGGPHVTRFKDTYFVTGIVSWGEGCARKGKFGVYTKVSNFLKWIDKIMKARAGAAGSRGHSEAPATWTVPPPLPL
T1 sequence (P00743 41-180 partner limits assumed): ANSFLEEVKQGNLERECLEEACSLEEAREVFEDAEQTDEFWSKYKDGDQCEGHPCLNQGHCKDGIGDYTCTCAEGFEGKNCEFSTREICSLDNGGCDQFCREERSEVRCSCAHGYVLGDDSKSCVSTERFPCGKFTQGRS
Protocol: Self-assembly of the dimeric forms of hPAH-RD^1–120 was followed in real-time at 25 °C upon cleavage of MBP-FXa-hPAH-RD^1–120 with FXa (New England Biolabs) to release the MBP fusion partner. Assays (n = 3) were performed in the absence or presence of tested compounds as described in [17]. Briefly, FXa (at a final ratio 1:150 (w/w) relative to the fusion protein) was added to the reaction mixture containing the MBP-FXa-hPAH-RD^1–120 fusion protein (0.74 mg/mL), 20 mM Na-HEPES, 100 mM NaCl, pH 7.0 and tested 3HQ (100 μM). The increase in absorbance at 350 nm was followed for 180 min on a FLUOstar Omega (BMG Labtech) microplate reader. A shaking step was introduced before each measurement. Appropriate control assays were performed and included: (i) a positive control consisting of MBP-FXa-hPAH-RD^1–120 in the presence of FXa, 1% DMSO and in the absence of compounds; and (ii) a negative control consisting of MBP-FXa-hPAH-RD^1–120 in the absence of FXa and compounds. For all the assays, aliquots of the aggregation reaction were collected at the end of the reaction (180 min) and analyzed by SDS-PAGE to confirm the extent of MBP cleavage by FXa. In addition, the effect of tested compounds on FXa activity was monitored using the synthetic FXa substrate Boc–Ile–Glu-Gly–Arg–AMC (t-(Butyloxycarbonyl)-isoleucylglutamylglycylarginyl-7-amido-4-methylcoumarin; from Bachem). Assays (n = 3) were performed in a 96-well plate, in a final volume of 200 μL containing 20 mM Na-HEPES, 100 mM NaCl, pH 7.0, 5 μg/mL of FXa, 50 μM of Boc–Ile-Glu–Gly–Arg–AMC and 100 μM of 3HQ derivatives. Fluorescence was measured in real-time (λexc 360 nm and λem 460 nm) during 30 min, at 25 °C. Controls were performed using substrate alone with 1% DMSO (negative control) and FXa with no compounds and 1% DMSO (positive control).

[2] = molecular target: T2, human phenylalanine hydroxylase (hPAH) (Homo sapiens, UniProt P00439); assay: Small-angle X-ray scattering of hPAH; details: 200 μM in buffer/2% DMSO
T2 construct: Recombinant full-length wild-type (WT) hPAH was expressed in E. coli Top10 cells in fusion with a hexa-histidyl peptide; made in house; host or cells: E. coli Top10
T2 sequence (P00439 1-452): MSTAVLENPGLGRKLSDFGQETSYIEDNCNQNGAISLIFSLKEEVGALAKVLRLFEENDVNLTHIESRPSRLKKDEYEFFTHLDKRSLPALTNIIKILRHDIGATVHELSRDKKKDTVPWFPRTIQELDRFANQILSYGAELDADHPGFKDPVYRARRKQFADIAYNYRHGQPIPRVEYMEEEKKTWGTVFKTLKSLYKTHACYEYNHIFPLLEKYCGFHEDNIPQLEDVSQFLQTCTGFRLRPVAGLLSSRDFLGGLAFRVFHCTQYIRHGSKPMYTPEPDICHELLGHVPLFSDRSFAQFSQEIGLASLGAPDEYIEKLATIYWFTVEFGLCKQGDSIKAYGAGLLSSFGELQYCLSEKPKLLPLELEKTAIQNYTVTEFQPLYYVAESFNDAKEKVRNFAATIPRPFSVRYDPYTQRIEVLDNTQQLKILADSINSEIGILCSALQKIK
Protocol: Small-angle X-ray scattering experiments were performed at the Diamond Light Source B21 [30] beamline at a wavelength of 0.95 Å. Tetrameric hPAH was thawed on ice, centrifuged at 12,000× g for 8 min at 4 °C, and quantitated using a NanoDrop (molar extinction coefficient: 10.09 mg/mL/cm) prior to data acquisition. Measurements were performed in static mode with the automated sample changer at 20 °C using a protein concentration of 86 μM (monomer) in 20 mM Na-HEPES, 200 mM NaCl, pH 7.0 in the absence or presence of 2% DMSO. L-Phe and compound 9 were tested at a final concentration of 200 μM in 2% DMSO. Data were recorded using a Pilatus 2M detector covering a momentum transfer 0.0031 < s < 0.380 Å-1 (s = 4π sin θ/λ, where 2θ is the scattering angle). The data were processed and analyzed using the ATSAS program suite. The sample frames were monitored for radiation damage, the selected frames were averaged, and the buffer contribution was subtracted using PRIMUS [32]. The radius of gyration (Rg) and the maximum particle dimension (Dmax) were estimated from the Guinier approximation using PRIMUS and from the pair-distribution function P(r) using the GNOM package, respectively. Fitting of the experimental curves and the theoretical curves computed from SASBDB models was performed using CRYSOL [31].

SMILES	viability at 24 h, 50 µM [1]	viability at 24 h, 100 µM [1]	FXa relative (residual) enzyme activity (Factor Xa (FXa))	Factor Xa Abs/min (Factor Xa (FXa))	Dmax of hPAH [2]	MM of hPAH (MM = VP/1.6) [2]	Rg^Guinier of hPAH [2]	Rg^P(r) of hPAH [2]	VP (excluded particle volume) of hPAH [2]
COC(=O)CC[C@H](NC(=O)c1c(O)c(=O)[nH]c2ccc(OC(F)(F)F)cc12)C(=O)OC [Compound 9]	85 ± 32%	82 ± 13%	77%	465 ± 29 Abs/min	189 Å	268 kDa	52.14 ± 0.07 Å	52.00 ± 0.05 Å	428,899 Å^3
COC(=O)CNC(=O)c1c(O)c(=O)[nH]c2ccc(OC(F)(F)F)cc12 [Compound 11]	94 ± 3%	101 ± 5%	69%	407 ± 8 Abs/min	–	–	–	–	–
N[C@@H](Cc1ccccc1)C(=O)O [L-Phe, L-phenylalanine, reference compound]	–	–	–	–	179 Å	393 kDa	52.73 ± 0.07 Å	–	629,301 Å^3
